Molecular target: human BCL6 BTB domain (Trx-6xHis-BCL6) (Homo sapiens (Human), UniProt P41182)
Assay: HTRF in vitro assay (BCL6 BTB domain / BCOR-AF633 peptide)
Assay type: binding
Settings: for IC50: read-out: HTRF pIC50 (converted)
[1] = initially generated data (Table 1a), 10 nM Trx-6xHis-BCL6, 1 nM anti-6xHis-Terbium cryptate
[2] = further generated data (Table 1b), 1 nM Trx-6xHis-BCL6, 0.5 nM anti-6xHis-Terbium cryptate

Description: The % inhibition at each concentration was calculated by normalising FRET ratio to the appropriate high (DMSO with all reagents) and low (DMSO without BCL6) controls.

With `C[C@@H](Nc1cc(=O)n(C)c2ccc(Nc3ccnc(Cl)c3C#N)cc12)C(=O)NCCc1cnn(C)c1` [Example 3m, (R)-2-((6-((2-Chloro-3-cyanopyridin-4-yl)amino)-1-methyl-2-oxo-1,2-dihydroquinolin-4-yl)amino)-N-(2-(1-methyl-1H-pyrazol-4-yl)ethyl)propanamide] the “HTRF pIC50” value [1] was 6.06.
`COC1CCC(NC(=O)[C@@H](C)Nc2cc(=O)n(C)c3ccc(Nc4ccnc(Cl)c4C#N)cc23)CC1` (stereo partly drawn) [Example 3i, (R)-2-((6-((2-Chloro-3-cyanopyridin-4-yl)amino)-1-methyl-2-oxo-1,2-dihydroquinolin-4-yl)amino)-N-(4-methoxycyclohexyl)propanamide] was tested, and the “HTRF pIC50” value [2] was 6.42 and the “HTRF pIC50” value [1] was 6.36.
For `Cc1nnc(C(C)Nc2cc(=O)n(C)c3ccc(Nc4ccnc(Cl)c4C#N)cc23)o1` (centres unmarked) [Example 3l, 2-Chloro-4-((1-methyl-4-((1-(5-methyl-1,3,4-oxadiazol-2-yl)ethyl)amino)-2-oxo-1,2-dihydroquinolin-6-yl)amino)nicotinonitrile], the “HTRF pIC50” value [2] was 5.93 and the “HTRF pIC50” value [1] was 6.16.
For `CC[C@@H]1C[C@H]1Nc1cc(=O)n(C)c2ccc(Nc3cc(C(=O)O)nc(Cl)c3C#N)cc12` (racemic) [Example 9i, rac-6-chloro-5-cyano-4-((4-(((1R,2R)-2-ethylcyclopropyl)amino)-1-methyl-2-oxo-1,2-dihydroquinolin-6-yl)amino)picolinic acid], the IC50 [2] was 245 nM.
With `CNC(=O)c1cc(Nc2ccc3c(c2)c(NC(C)(C)C)cc(=O)n3C)c(C#N)c(Cl)n1` [Example 7c, 4-((4-(tert-butylamino)-1-methyl-2-oxo-1,2-dihydroquinolin-6-yl)amino)-6-chloro-5-cyano-N-methylpicolinamide] the “HTRF pIC50” value [2] was 6.33.
`C[C@@H](Nc1cc(=O)n(C)c2ccc(Nc3cc(C(=O)O)nc(Cl)c3C#N)cc12)C1CC1` [Example 9b, (R)-6-chloro-5-cyano-4-((4-((1-cyclopropylethyl)amino)-1-methyl-2-oxo-1,2-dihydroquinolin-6-yl)amino)picolinic acid] was tested, and the “HTRF pIC50” value [2] was 7.13.
In the case of `C#CC1(Nc2cc(=O)n(C)c3ccc(Nc4cc(C(=O)O)nc(Cl)c4C#N)cc23)CC1` [Example 9h, 6-chloro-5-cyano-4-((4-((1-ethynylcyclopropyl)amino)-1-methyl-2-oxo-1,2-dihydroquinolin-6-yl)amino)picolinic acid], the “HTRF pIC50” value [2] is reported as 6.77.
`Cn1c(=O)cc(N[C@H]2C[C@H](O)C2)c2cc(Nc3ccnc(Cl)c3C#N)ccc21` [Example 1f, trans-2-chloro-4-[[4-[(3-hydroxycyclobutyl)amino]-1-methyl-2-oxo-6-quinolyl]amino]pyridine-3-carbonitrile] was tested, and the “HTRF pIC50” value [2] was 6.27 and the “HTRF pIC50” value [1] was 6.37.
`COc1cc(Nc2ccc3c(c2)c(N[C@H](CO)C2CC2)cc(=O)n3C)c(Cl)cn1` [Example 15c, (S)-6-((5-chloro-2-methoxypyridin-4-yl)amino)4-4((1-cyclopropyl-2-hydroxyethyl)amino)-1-methylquinoline-2(1H)-one] was tested, and the IC50 [2] was 575 nM.
In the case of `C[C@@H](Nc1cc(=O)n(C)c2ccc(Nc3ccnc(Cl)c3C#N)cc12)C(=O)NC1CCCC1` [Example 3d, (R)-2-((6-((2-Chloro-3-cyanopyridin-4-yl)amino)-1-methyl-2-oxo-1,2-dihydroquinolin-4-yl)amino)-N-cyclopentylpropanamide], the “HTRF pIC50” value [2] is reported as 6.61 and the “HTRF pIC50” value [1] is reported as 6.62.
For `C[C@@H]1CN(c2cc(Nc3ccc4c(c3)c(N[C@H](C)C3CC3)cc(=O)n4C)c(Cl)cn2)C[C@H](C)O1` [Example 6h, 6-((5-chloro-2-((2S,6R)-2,6-dimethylmorpholino)pyridin-4-yl)amino)-4-(((R)-1-cyclopropylethyl)amino)-1-methylquinolin-2(1H)-one], the “HTRF pIC50” value [2] was 6.00.
`Cn1c(=O)cc(NC2CC2)c2cc(Nc3cc(C(=O)O)nc(Cl)c3C#N)ccc21` [Example 2b, 6-chloro-5-cyano-4-[[4-(cyclopropylamino)-1-methyl-2-oxo-6-quinolyl]amino]pyridine-2-carboxylic acid] was tested, and the “HTRF pIC50” value [2] was 6.55 and the “HTRF pIC50” value [1] was 6.41.
For `CCNc1cc(=O)n(CCOCCOC)c2ccc(Nc3ccnc(Cl)c3C#N)cc12` [Example 1o, 2-chloro-4-[[4-(ethylamino)-1-[2-(2-methoxyethoxy)ethyl]-2-oxo-6-quinolyl]amino]pyridine-3-carbonitrile], the IC50 [2] was 708 nM.
For `Cn1c(=O)cc(NC(C)(C)c2ncccn2)c2cc(Nc3cc(C(=O)N4CC(CC#N)C4)nc(Cl)c3C#N)ccc21` [Example 8h, 2-chloro-6-(3-(cyanomethyl)azetidine-1-carbonyl)-4-((1-methyl-2-oxo-4-((2-(pyrimidin-2-yl)propan-2-yl)amino)-1,2-dihydroquinolin-6-yl)amino)nicotinonitrile], the “HTRF pIC50” value [2] was 7.68.
For `CC(Nc1cc(=O)n(C)c2ccc(Nc3ncnc(Cl)c3C#N)cc12)c1ncccn1` (centres unmarked) [Example 10t, 4-chloro-6-((1-methyl-2-oxo-4-((1-(pyrimidin-2-yl)ethyl)amino)-1,2-dihydroquinolin-6-yl)amino)pyrimidine-5-carbonitrile], the “HTRF pIC50” value [2] was 6.22.
With `C[C@@H](Nc1cc(=O)n(C)c2ccc(Nc3cc(N4CCC(C(=O)N(C)C)CC4)ncc3Cl)cc12)C1CC1` [Example 6i, (R)-1-(5-chloro-4-((4-((1-cyclopropylethyl)amino)-1-methyl-2-oxo-1,2-dihydroquinolin-6-yl)amino)pyridin-2-yl)-N,N-dimethylpiperidine-4-carboxamide] the “HTRF pIC50” value [2] was 6.35.
In the case of `CCNc1cc(=O)n(C)c2ccc(Nc3cc(C(=O)NC)nc(Cl)c3C#N)cc12` [Example 5, 6-Chloro-5-cyano-4-[[4-(ethylamino)-1-methyl-2-oxo-6-quinolyl]amino]-N-methyl-pyridine-2-carboxamide], the “HTRF pIC50” value [2] is reported as 6.43 and the “HTRF pIC50” value [1] is reported as 6.21.
In the case of `CC(Nc1cc(=O)n(C)c2ccc(Nc3ccnc(Cl)c3C#N)cc12)c1cc[nH]n1` (centres unmarked) [Example 1t, 2-chloro-4-[[1-methyl-2-oxo-4-[1-(1H-pyrazol-3-yl)ethylamino]-6-quinolyl]amino]pyridine-3-carbonitrile], the “HTRF pIC50” value [2] is reported as 5.84 and the “HTRF pIC50” value [1] is reported as 6.00.
With `Cn1c(=O)cc(NCCF)c2cc(Nc3cc(C(=O)O)nc(Cl)c3C#N)ccc21` [Example 9c, 6-chloro-5-cyano-4-((4-((2-fluoroethyl)amino)-1-methyl-2-oxo-1,2-dihydroquinolin-6-yl)amino)picolinic acid] the “HTRF pIC50” value [2] was 6.05.
For `CCNc1cc(=O)n(C)c2ccc(Nc3cc(C(=O)O)nc(Cl)c3C#N)cc12` [Example 4, 6-Chloro-5-cyano-4-[[4-(ethylamino)-1-methyl-2-oxo-6-quinolyl]amino]pyridine-2-carboxylic acid], the “HTRF pIC50” value [2] was 6.07 and the “HTRF pIC50” value [1] was 6.06.
`Cc1cc(C)n(-c2ncc(Cl)c(Nc3ccc4c(c3)c(NC(C)c3ncccn3)cc(=O)n4C)n2)n1` (centres unmarked) [Example 14f, 6-((5-chloro-2-(3,5-dimethyl-1H-pyrazol-1-yl)pyrimidin-4-yl)amino)-1-methyl-4-((1-(pyrimidin-2-yl)ethyl)amino)quinolin-2(1H)-one] was tested, and the “HTRF pIC50” value [2] was 6.49.
For `CC(Nc1cc(=O)n(C)c2ccc(Nc3ccnc(Cl)c3C#N)cc12)c1cnccn1` (centres unmarked) [Example 1j, 2-chloro-4-[[1-methyl-2-oxo-4-(1-pyrazin-2-ylethylamino)-6-quinolyl]amino]pyridine-3-carbonitrile], the “HTRF pIC50” value [2] was 6.29 and the “HTRF pIC50” value [1] was 6.27.
`COCC(C)(C)Nc1cc(=O)n(C)c2ccc(Nc3cc(C(=O)O)nc(Cl)c3C#N)cc12` [Example 9m, 6-chloro-5-cyano-4-((4-((1-methoxy-2-methylpropan-2-yl)amino)-1-methyl-2-oxo-1,2-dihydroquinolin-6-yl)amino)picolinic acid] was tested, and the “HTRF pIC50” value [2] was 7.01.
For `CC(Nc1cc(=O)n(C)c2ccc(Nc3ccnc(Cl)c3C#N)cc12)c1ccncn1` (centres unmarked) [Example 1q, 2-chloro-4-[[1-methyl-2-oxo-4-(1-pyrimidin-4-ylethylamino)-6-quinolyl]amino]pyridine-3-carbonitrile], the “HTRF pIC50” value [2] was 6.29 and the “HTRF pIC50” value [1] was 6.10.
With `CC(Nc1cc(=O)n(C)c2ccc(Nc3ccnc(Cl)c3C#N)cc12)c1nccs1` (centres unmarked) [Example 1s, 2-chloro-4-[[1-methyl-2-oxo-4-(1-thiazol-2-ylethylamino)-6-quinolyl]amino]pyridine-3-carbonitrile] the “HTRF pIC50” value [2] was 6.07 and the “HTRF pIC50” value [1] was 6.03.
For `C#CCCNC(=O)[C@@H](C)Nc1cc(=O)n(C)c2ccc(Nc3ccnc(Cl)c3C#N)cc12` [Example 3f, (R)-N-(But-3-yn-1-yl)-2-((6-((2-chloro-3-cyanopyridin-4-yl)amino)-1-methyl-2-oxo-1,2-dihydroquinolin-4-yl)amino)propanamide], the “HTRF pIC50” value [2] was 6.71 and the “HTRF pIC50” value [1] was 6.48.
With `CNC(=O)[C@@H](C)Nc1cc(=O)[nH]c2ccc(Nc3ccnc(Cl)c3C#N)cc12` [Example 3p, (R)-2-((6-((2-chloro-3-cyanopyridin-4-yl)amino)-2-oxo-1,2-dihydroquinolin-4-yl)amino)-N-methylpropanamide] the “HTRF pIC50” value [2] was 6.61 and the “HTRF pIC50” value [1] was 6.61.
In the case of `Cn1c(=O)cc(NC2(C)CC2)c2cc(Nc3cc(C(=O)O)nc(Cl)c3C#N)ccc21` [Example 2c, 6-chloro-5-cyano-4-[[1-methyl-4-[(1-methylcyclopropyl)amino]-2-oxo-6-quinolyl]amino]pyridine-2-carboxylic acid], the “HTRF pIC50” value [2] is reported as 6.38 and the “HTRF pIC50” value [1] is reported as 6.36.
With `C[C@@H]1C[C@H](C)CN(c2ncc(Cl)c(Nc3ccc4c(c3)c(NC(C)(C)c3ncccn3)nc(=O)n4C)n2)C1` [Example 26g, 6-[[5-chloro-2-[(3R,5S)-3,5-dimethyl-1-piperidyl]pyrimidin-4-yl]amino-1-methyl-4-[(1-methyl-1-pyrimidin-2-yl)ethyl)amino]quinazolin-2-one:formic acid (1:1)] the “HTRF pIC50” value [2] was 6.54.
With `C[C@@H](Nc1cc(=O)n(C)c2ccc(Nc3nc(N4CCC4)ncc3Cl)cc12)C1CC1` [Example 26a, (R)-6-((2-(azetidin-1-yl)-5-chloropyrimidin-4-yl)amino)-4-((1-cyclopropylethyl)amino)-1-methylquinolin-2(1H)-one: formic acid (1:1)] the “HTRF pIC50” value [2] was 6.25.
